These results are taken from patent publication US20090196924A1 (priority 2008, published 2009).

A short description of series [1]: Solubility of lamotrigine. Format: physicochemical. As to conditions: all media; slightly pH-dependent, highest in 0.1N HCl.
The conditions of series [2]: 25° C., cited from earlier work.
The conditions of series [3]: concomitant valproate (reduces hepatic clearance of lamotrigine), for a given dose; cited from earlier work.

≈ marks a conversion by molar mass, not a printed value.

On to `Nc1nnc(-c2cccc(Cl)c2Cl)c(N)n1` [Lamotrigine, 3,5-diamino-6-(2,3-dichlorophenyl)-as-triazine], for which the solubility of lamotrigine entry in series [1] is recorded as “moderately high in all media”. The “solubility in 0.1 M HCl” value in series [2] (0.1 M HCl) is 4100 µg/mL (≈ 16 mM). Moreover, in series [2] (water), the solubility in water is 170 µg/mL (≈ 0.664 mM). Moreover, in series [3], the “increase of plasma concentrations of the drug” value is “approximately two-fold”.
